{
  "source": "ChEMBL document CHEMBL1201862",
  "about": "“PubChem BioAssay data set” (2004)",
  "key": {"[1]": {"test_system": "INS1", "assay": "beta cell apoptosis inhibitors, cytokine rescue, dose response, luminescence, retest (AID 449756);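 further: cell death triggered by IL-1 beta plus TNF-alpha plus IFN-gamma mixture; protective hits raise ATP signal compared with cytokine alone wells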", "type": "functional, cell-based", "details": "Rattus norvegicus"}, "[2]": {"assay": "Shn3 3'UTR reporter inhibitors, dose response, cell-based, Clone20 osteoblasts, firefly luciferase, cherry-picked (AID 624132)", "type": "functional"}, "[3]": {"assay": "HepG2 cell cytotoxicity, dose response, cytotoxicity control for Shn3 inhibitor project, CellTiter-Glo, cherry-picked (AID 624134)", "type": "functional, cell-based"}, "[4]": {"assay": "control 3'UTR Renilla luciferase suppression, dose response, counter-screen for Shn3 inhibitor project, cell-based, Clone20-Shn3RL, cherry-picked (AID 624133)", "type": "functional"}, "[5]": {"target": "Protein Wnt-3a (Mus musculus, UniProt P27467)", "sequence (P27467 whole entry)": "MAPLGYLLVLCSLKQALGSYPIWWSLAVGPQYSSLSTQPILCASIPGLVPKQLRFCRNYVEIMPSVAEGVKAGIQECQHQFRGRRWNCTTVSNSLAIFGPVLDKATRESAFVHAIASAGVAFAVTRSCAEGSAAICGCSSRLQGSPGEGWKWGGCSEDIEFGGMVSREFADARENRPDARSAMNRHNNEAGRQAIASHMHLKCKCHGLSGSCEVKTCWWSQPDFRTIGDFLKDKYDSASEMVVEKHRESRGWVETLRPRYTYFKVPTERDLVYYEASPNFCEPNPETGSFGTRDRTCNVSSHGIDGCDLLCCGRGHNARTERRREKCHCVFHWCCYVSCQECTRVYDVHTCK", "assay": "Wnt3a-driven reporter signaling inhibition, dose response, selectivity assay for Gli-SUFU antagonist project, Wnt-LIGHT cells, luminescence (AID 651570);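 further: Wnt-LIGHT reporter cells stimulated with conditioned medium from Wnt3a-producing cells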", "type": "functional", "details": "read-out: IC50_Mean"}, "[6]": {"target": "T1, COUP transcription factor 2 (Homo sapiens, UniProt P24468)", "T1 sequence (P24468 whole entry)": "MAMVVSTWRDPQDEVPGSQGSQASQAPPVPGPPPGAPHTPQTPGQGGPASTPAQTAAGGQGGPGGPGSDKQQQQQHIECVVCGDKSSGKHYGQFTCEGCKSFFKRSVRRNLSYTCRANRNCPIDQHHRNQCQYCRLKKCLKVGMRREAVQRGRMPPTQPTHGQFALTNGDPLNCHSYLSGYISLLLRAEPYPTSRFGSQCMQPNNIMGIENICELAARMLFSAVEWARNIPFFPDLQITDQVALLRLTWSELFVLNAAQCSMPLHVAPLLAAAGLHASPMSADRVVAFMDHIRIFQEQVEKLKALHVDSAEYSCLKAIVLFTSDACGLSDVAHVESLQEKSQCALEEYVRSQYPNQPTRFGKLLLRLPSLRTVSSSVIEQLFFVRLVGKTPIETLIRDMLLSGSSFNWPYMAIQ", "assay": "Luminescence-based cell-based high throughput dose response assay to identify inhibitors of COUP-TFII (NR2F2).", "type": "functional"}, "[7]": {"test_system": "BJ", "assay": "cytotoxicity toward BJ-TERT fibroblasts, dose response, cell-based, RAS-independent, luminescence (AID 1933)", "type": "functional", "details": "Homo sapiens"}, "[8]": {"test_system": "BJ", "assay": "cells", "type": "functional, cell-based", "details": "Homo sapiens"}, "[9]": {"test_system": "BJ", "assay": "cytotoxicity toward BJ-TERT-LT-ST fibroblasts, dose response, cell-based, RAS-independent, luminescence (AID 1935);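 further: BJ fibroblasts immortalized with TERT plus LT and ST oncogenes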", "type": "functional", "details": "Homo sapiens"}, "[10]": {"assay": "cytotoxicity toward DRD oncogenic fibroblasts, dose response, cell-based, non-viral oncogenic, luminescence (AID 1934)", "type": "functional", "details": "Homo sapiens"}, "[11]": {"target": "G-protein coupled receptor 55 (Homo sapiens, UniProt Q9Y2T6)", "sequence (Q9Y2T6 whole entry)": "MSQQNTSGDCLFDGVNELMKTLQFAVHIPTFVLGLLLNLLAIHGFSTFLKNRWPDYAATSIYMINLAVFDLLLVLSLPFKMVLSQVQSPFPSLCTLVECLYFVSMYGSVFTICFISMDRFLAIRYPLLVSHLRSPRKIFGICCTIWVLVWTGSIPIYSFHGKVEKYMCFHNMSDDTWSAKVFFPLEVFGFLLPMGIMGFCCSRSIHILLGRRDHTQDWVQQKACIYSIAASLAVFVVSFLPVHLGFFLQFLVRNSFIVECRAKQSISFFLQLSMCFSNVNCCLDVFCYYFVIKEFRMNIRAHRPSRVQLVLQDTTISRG", "assay": "GPR55 agonists via beta-arrestin recruitment, primary screen, imaging, U2OS cells, beta-arrestin-GFP redistribution (AID 1961)", "type": "functional"}, "[12]": {"test_system": "BJ", "assay": "cytotoxicity toward Ras-transformed BJeLR fibroblasts, dose response, cell-based, alamar blue fluorescence, cherrypicked samples (AID 2631)", "type": "functional", "details": "Homo sapiens"}, "[13]": {"assay": "Vero cell cytotoxicity, dose response, cytotoxicity control for Vif-APOBEC3G degradation inhibitor project, Vero cells (AID 1117358)", "type": "functional", "details": "Human immunodeficiency virus 1, Vero"}, "[14]": {"target": "Cytochrome P450 2D6 (Homo sapiens, UniProt P10635)", "sequence (P10635 whole entry)": "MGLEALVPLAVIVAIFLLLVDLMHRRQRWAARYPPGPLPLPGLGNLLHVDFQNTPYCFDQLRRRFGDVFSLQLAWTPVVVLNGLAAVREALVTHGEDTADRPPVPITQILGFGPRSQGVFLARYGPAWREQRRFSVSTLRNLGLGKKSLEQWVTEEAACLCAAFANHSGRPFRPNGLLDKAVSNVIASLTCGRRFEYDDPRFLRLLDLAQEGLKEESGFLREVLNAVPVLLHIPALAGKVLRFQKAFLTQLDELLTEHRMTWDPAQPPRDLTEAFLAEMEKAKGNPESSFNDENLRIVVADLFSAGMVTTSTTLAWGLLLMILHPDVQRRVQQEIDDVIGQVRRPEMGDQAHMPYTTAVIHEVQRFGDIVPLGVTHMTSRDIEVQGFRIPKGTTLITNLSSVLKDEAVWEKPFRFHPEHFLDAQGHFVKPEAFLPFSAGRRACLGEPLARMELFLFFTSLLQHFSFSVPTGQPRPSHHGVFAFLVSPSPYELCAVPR"}, "[15]": {"assay": "A549 cell cytotoxicity, dose response, cytotoxicity control, plate reader, cherry-pick, antagonist series (AID 743412)", "type": "functional, cell-based"}, "[16]": {"assay": "HepG2 cell cytotoxicity, dose response, cytotoxicity control, plate reader, cherry-pick, antagonist series (AID 743416)", "type": "functional, cell-based"}, "[17]": {"assay": "LGR2 antagonists, dose response, cell-based, HEK293, CRE-luciferase reporter, cherry pick, set 2 (AID 743343);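 further: transfected cells were stimulated with diluted bursicon conditioned medium after compound addition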", "type": "functional"}, "[18]": {"assay": "MC4R antagonists, dose response, counter-screen for LGR2 antagonist project, cell-based, plate reader, cherry pick (AID 743444);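 further: transfected HEK 293 cells stimulated with alpha-MSH peptide; potency of inhibitors of the alpha-MSH evoked signal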", "type": "functional"}, "[19]": {"assay": "HEK293 cell cytotoxicity, dose response, cytotoxicity control, plate reader, cherry-picked samples (AID 743446)", "type": "functional, cell-based"}, "[20]": {"assay": "inhibitors of Vif binding to APOBEC3G peptide, primary screen, biochemical, TR-FRET, GST-Vif 1-94, biotin-A3G peptide, dose response retest (AID 1117319);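 further: TR-FRET signal of purified GST-Vif binding a biotinylated A3G peptide; inhibitors lower the FRET signal by blocking Vif and A3G binding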", "type": "functional"}, "[21]": {"target": "T2, Leucine aminopeptidase (Plasmodium falciparum 3D7, UniProt Q8IL11)", "T2 sequence (Q8IL11 whole entry)": "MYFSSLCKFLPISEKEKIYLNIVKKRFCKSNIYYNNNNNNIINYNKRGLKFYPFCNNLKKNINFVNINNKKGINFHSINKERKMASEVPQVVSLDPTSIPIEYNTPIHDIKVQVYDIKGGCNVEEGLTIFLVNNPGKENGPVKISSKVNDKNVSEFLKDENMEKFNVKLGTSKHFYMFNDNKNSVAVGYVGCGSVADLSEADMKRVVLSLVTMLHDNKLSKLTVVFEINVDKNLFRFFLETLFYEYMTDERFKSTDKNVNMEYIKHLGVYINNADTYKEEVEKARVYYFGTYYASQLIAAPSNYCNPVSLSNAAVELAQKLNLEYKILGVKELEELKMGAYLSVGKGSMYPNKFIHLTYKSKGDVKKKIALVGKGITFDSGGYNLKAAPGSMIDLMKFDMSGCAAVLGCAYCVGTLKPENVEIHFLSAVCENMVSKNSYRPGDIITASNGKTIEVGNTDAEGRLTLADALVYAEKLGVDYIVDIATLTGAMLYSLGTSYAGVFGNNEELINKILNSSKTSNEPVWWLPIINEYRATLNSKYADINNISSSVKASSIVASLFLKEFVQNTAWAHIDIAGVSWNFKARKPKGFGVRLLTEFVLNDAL", "assay": "P. falciparum M17LAP inhibitors, primary screen, biochemical, fluorogenic H-Leu-NHMec substrate, 1536-well (AID 1619)", "type": "functional"}, "[22]": {"target": "Estrogen receptor beta (Homo sapiens, UniProt Q92731)", "sequence (Q92731 whole entry)": "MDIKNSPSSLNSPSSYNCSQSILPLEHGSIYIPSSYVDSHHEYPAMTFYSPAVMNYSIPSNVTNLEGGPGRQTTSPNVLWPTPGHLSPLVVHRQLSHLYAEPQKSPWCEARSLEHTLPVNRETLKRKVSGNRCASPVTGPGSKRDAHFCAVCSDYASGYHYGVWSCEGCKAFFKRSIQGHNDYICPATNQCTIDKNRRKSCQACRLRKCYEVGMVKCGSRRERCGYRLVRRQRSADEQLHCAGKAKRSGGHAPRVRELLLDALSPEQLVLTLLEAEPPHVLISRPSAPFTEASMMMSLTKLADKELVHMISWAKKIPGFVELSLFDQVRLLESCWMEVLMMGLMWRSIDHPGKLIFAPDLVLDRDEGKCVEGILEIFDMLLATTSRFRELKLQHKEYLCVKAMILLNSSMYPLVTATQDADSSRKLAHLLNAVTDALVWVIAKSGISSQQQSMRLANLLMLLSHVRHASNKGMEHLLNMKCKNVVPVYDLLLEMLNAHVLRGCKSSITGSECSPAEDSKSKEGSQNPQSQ", "assay": "ERβ–SRC-3 coactivator interaction inhibitors, confirmation, orthogonal assay, biochemical, ELISA, streptavidin-HRP readout (AID 1060)"}, "[23]": {"assay": "inhibitors of PGC1a acetylation in cells, dose response, cell-based, cherry-picked samples (AID 720514);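 further: potency may reflect raised or lowered acetylation signal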", "type": "functional"}, "[24]": {"assay": "P. falciparum Dd2 growth inhibitors, dose response, SYBR Green, cherry-picked samples (AID 1159567)", "type": "functional, cell-based"}, "[25]": {"assay": "HepG2 cell cytotoxicity, dose response, cytotoxicity control, cherry-picked samples (AID 1159577)", "type": "functional, cell-based"}, "[26]": {"target": "Paired box protein Pax-8 (Homo sapiens, UniProt Q06710)", "sequence (Q06710 whole entry)": "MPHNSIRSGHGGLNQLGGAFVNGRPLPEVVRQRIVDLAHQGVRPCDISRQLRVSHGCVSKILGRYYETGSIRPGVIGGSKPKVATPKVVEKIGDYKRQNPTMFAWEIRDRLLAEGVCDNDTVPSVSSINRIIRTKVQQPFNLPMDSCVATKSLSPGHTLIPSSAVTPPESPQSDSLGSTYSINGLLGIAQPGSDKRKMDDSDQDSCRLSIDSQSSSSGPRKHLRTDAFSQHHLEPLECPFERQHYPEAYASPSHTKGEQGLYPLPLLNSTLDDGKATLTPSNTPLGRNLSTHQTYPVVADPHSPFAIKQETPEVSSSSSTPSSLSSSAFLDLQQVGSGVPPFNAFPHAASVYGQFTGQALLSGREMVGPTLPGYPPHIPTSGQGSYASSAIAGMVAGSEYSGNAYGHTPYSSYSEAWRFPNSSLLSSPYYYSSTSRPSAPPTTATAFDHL", "assay": "inhibitors of PAX8-driven TPO luciferase reporter, dose response, RMG-I cells, cherry-pick (AID 687027);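 further: luciferase reporter driven by Pax8 target thyroperoxidase promoter measured by SteadyGlo luminescence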", "type": "functional, cell-based"}, "[27]": {"assay": "NIH:OVCAR-3 ovarian cancer cell cytotoxicity, dose response, PAX8 inhibitor project, plate reader, dry powder samples (AID 743044)", "type": "functional, cell-based"}, "[28]": {"assay": "cytotoxicity in OVCAR8 ovarian cancer cells, dose response, PAX8 project, cell-based, plate reader, dry powder samples (AID 743197)", "type": "functional", "details": "OVCAR-8"}},
  "note": "Calls of active or inactive are those of the source.",
  "data": [
    {"smiles": "CCc1ccc(CN(C)C(=O)c2cc(COc3cccc4cnccc34)on2)cc1", "values": [
      {"measurement": "AC50", "setting": "[1]", "value": "3.27 µM (active)"},
      {"measurement": "AC50", "setting": "[2]", "value": "1.92 µM (active)"},
      {"measurement": "AC50", "setting": "[3]", "value": "3.23 µM (active)"},
      {"measurement": "AC50", "setting": "[4]", "value": "13.5 µM (active)"},
      {"measurement": "IC50", "setting": "[5]", "value": "4.25 µM (active)"},
      {"measurement": "IC50", "setting": "[6]", "value": "7.5 µM (active)"}
    ]},
    {"smiles": "COc1ccccc1-n1cnc2cc(NCc3cccs3)ccc21", "values": [
      {"measurement": "EC50", "setting": "[7]", "value": "8.39 µM (inconclusive)"},
      {"measurement": "EC50", "setting": "[8]", "value": "20.5 µM (active)"},
      {"measurement": "EC50", "setting": "[9]", "value": "11 µM (inconclusive)"},
      {"measurement": "EC50", "setting": "[10]", "value": "4.55 µM (active)"},
      {"measurement": "EC50", "setting": "[11]", "value": "2.87 µM (active)"},
      {"measurement": "EC50", "setting": "[12]", "value": "0.248 µM (active)"},
      {"measurement": "CC50", "setting": "[13]", "value": "> 40 µM (active)"}
    ]},
    {"smiles": "O=C(CNC(=O)/C(=C\\c1ccccc1)NC(=O)c1ccc(Br)cc1)OCc1ccccc1", "values": [
      {"measurement": "CC50", "setting": "[13]", "value": "> 40 µM (active)"},
      {"measurement": "AC50", "setting": "[14]", "value": "14.1 µM (inconclusive)"}
    ]},
    {"smiles": "COc1cc(C(=O)Oc2cccc(Nc3ncnc4ccccc34)c2)cc(OC)c1OC", "values": [
      {"measurement": "AC50", "setting": "[15]", "value": "51.4 µM (active)"},
      {"measurement": "AC50", "setting": "[16]", "value": "> 52 µM (inactive)"},
      {"measurement": "AC50", "setting": "[17]", "value": "14.1 µM (active)"},
      {"measurement": "AC50", "setting": "[18]", "value": "17.7 µM (active)"},
      {"measurement": "AC50", "setting": "[19]", "value": "> 52 µM (inactive)"},
      {"measurement": "IC50", "setting": "[20]", "value": "> 100 µM (active)"},
      {"measurement": "CC50", "setting": "[13]", "value": "35.2 µM (active)"}
    ]},
    {"smiles": "CCOc1cc(/C=C(/C#N)c2ccc(F)cc2)ccc1OCc1ccc(C(=O)O)o1", "values": [
      {"measurement": "IC50", "setting": "[21]", "value": "23.6 µM (active)"}
    ]},
    {"smiles": "CN(C)C(=O)c1ccc(COc2ccccc2Br)o1", "values": [
      {"measurement": "CC50", "setting": "[13]", "value": "> 40 µM (active)"}
    ]},
    {"smiles": "O=C(Nc1ccc2c(c1)OCO2)c1cc2ncc(Br)cn2n1", "values": [
      {"measurement": "IC50", "setting": "[22]", "value": "< 0.023 µM (not active)"}
    ]},
    {"smiles": "OC[C@H]1[C@@H](c2ccc(C#CC3CCCC3)cc2)[C@@H]2CN(CCC(F)(F)F)CCCCN12", "values": [
      {"measurement": "AC50", "setting": "[23]", "value": "11 µM (active)"},
      {"measurement": "AC50", "setting": "[24]", "value": "0.346 µM (active)"},
      {"measurement": "AC50", "setting": "[25]", "value": "10.5 µM (active)"}
    ]},
    {"smiles": "O=C(Nc1ccc(C(F)(F)F)cc1)Nc1ccc2c(c1)[C@H]1C[C@@H](CC(=O)N3CCc4ccccc4C3)O[C@H](CO)[C@H]1O2", "values": [
      {"measurement": "AC50", "setting": "[26]", "value": "4.1 µM (active)"},
      {"measurement": "AC50", "setting": "[27]", "value": "23.6 µM (active)"},
      {"measurement": "AC50", "setting": "[28]", "value": "54 µM (active)"}
    ]}
  ]
}
